Assay results as given in PMC4951033, “Elevation of the Yields of Very Long Chain Polyunsaturated Fatty Acids via Minimal Codon Optimization of Two Key Biosynthetic Enzymes” (PLoS ONE, 2016).

Biological target: T1, PinD6 (PinDes6, delta-6 desaturase) (Phytophthora infestans, UniProt A0A833SQW7)
T1 construct: gene GN244_ATG16356

CC/C=C\C/C=C\C/C=C\CCCCCCCC(=O)O [ALA, α-linolenic acid]
GC of fatty acid methyl esters from fed yeast: WT-PinD6 can convert LA and ALA to GLA and SDA

CCCCC/C=C\C/C=C\CCCCCCCC(=O)O [LA]
GC of fatty acid methyl esters from fed yeast: WT-PinD6 can convert LA and ALA to GLA and SDA
